For 16 molecules, T/C results are on record in PubChem BioAssay AID274 (DTP/NCI, 2004).

Each structure is given as a SMILES string. “And” between values parts separate entries of the source, which are not always exact repeats. Equal entries are not always repeated. Inconclusive results and toxic doses are left out.

The assay concerns BDF1 mice, Lewis lung carcinoma iv, survival T/C. As to the kind of experiment: NCI In Vivo Anticancer Drug Screen. Data for tumor model Lewis Lung Carcinoma (intravenous) in B6D2F1 (BDF1) mice. The conditions noted are these: endpoint: median survival time, higher = longer survival. As to the method:
The antitumor activity of compounds was measured in mice bearing transplantable tumors. Survival or tumor size were measured and the results are expressed as the measurement made in the treated group (T) divided by the measurement made in the vehicle treated control group (C). The tumor model used in this assay is Lewis Lung Carcinoma (intravenous) in B6D2F1 (BDF1) mice

[1] abbreviates: dose: 12.5 mg/kg/injection, schedule: Q01DX009 (ip), vehicle: Klucel (hydroxypropylcellulose) (HPC).
[2] abbreviates: dose: 25.0 mg/kg/injection, schedule: Q01DX009 (ip), vehicle: Klucel (hydroxypropylcellulose) (HPC).
The mark [3] stands for this setting: dose: 6.25 mg/kg/injection, schedule: Q01DX009 (ip), vehicle: Klucel (hydroxypropylcellulose) (HPC).
Setting [4] is: dose: 100.0 mg/kg/injection, schedule: Q01DX009 (ip), vehicle: Klucel (hydroxypropylcellulose) (HPC).
[5] abbreviates: dose: 200.0 mg/kg/injection, schedule: Q01DX009 (ip), vehicle: Klucel (hydroxypropylcellulose) (HPC).
Setting [6] is: dose: 3.12 mg/kg/injection, schedule: Q01DX009 (ip), vehicle: Klucel (hydroxypropylcellulose) (HPC).
Setting [7] is: dose: 6.25 mg/kg/injection, schedule: Q01DX009 (ip), vehicle: saline with Tween-80.
[8] abbreviates: dose: 12.5 mg/kg/injection, schedule: Q01DX009 (ip), vehicle: saline with Tween-80.
Setting [9] is: dose: 25.0 mg/kg/injection, schedule: Q01DX009 (ip), vehicle: saline with Tween-80.
[10] abbreviates: dose: 50.0 mg/kg/injection, schedule: Q01DX009 (ip), vehicle: saline with Tween-80.
The mark [11] stands for this setting: dose: 100.0 mg/kg/injection, schedule: Q01DX009 (ip), vehicle: saline with Tween-80.
[12] abbreviates: dose: 200.0 mg/kg/injection, schedule: Q01DX009 (ip), vehicle: saline with Tween-80.
Setting [13] is: dose: 50.0 mg/kg/injection, schedule: Q01DX009 (ip), vehicle: Klucel (hydroxypropylcellulose) (HPC).

Consider `COc1cc2oc(=O)ccc2cc1[C@@H]1OC(=O)C2(C)O[C@@H]12` (stereo partly drawn), for which the T/C by setting is: (dose: 0.31 mg/kg/injection, schedule: Q01DX009 (ip), vehicle: water) 96 % of control; (dose: 0.62 mg/kg/injection, schedule: Q01DX009 (ip), vehicle: water) 104 % of control; (dose: 1.25 mg/kg/injection, schedule: Q01DX009 (ip), vehicle: water) 101 % of control; (dose: 2.5 mg/kg/injection, schedule: Q01DX009 (ip), vehicle: water) 101 % of control; (dose: 5.0 mg/kg/injection, schedule: Q01DX009 (ip), vehicle: water) 100 % of control.
With `COc1ccc2[nH]c3ccc4cc[n+](CCN5CCC(C6CCN(CC[n+]7ccc8ccc9[nH]c%10ccc(OC)cc%10c9c8c7)CC6)CC5)cc4c3c2c1`, the T/C is 98 % of control under setting [1] and 114 % of control under setting [2].
`CCCCCC[C@H]([C@H](C)O)n1cnc2c(N)ncnc21`: the T/C was 99 % of control under setting [3]; 104 % of control under setting [1]; 103 % of control under setting [2]; 96 % of control under setting [4]; 99 % of control under setting [5].
For `O=C1C(=O)c2cccnc2-c2ncccc21`, the T/C runs as follows: (dose: 0.78 mg/kg/injection, schedule: Q01DX009 (ip), vehicle: Klucel (hydroxypropylcellulose) (HPC)) 116 % of control; (dose: 1.56 mg/kg/injection, schedule: Q01DX009 (ip), vehicle: Klucel (hydroxypropylcellulose) (HPC)) 91 % of control; under setting [6], 100 % of control.
In the case of `C=C(Cl)C(=NC(C)(C)C)Nc1ccccc1C`, the T/C by setting is: under setting [6], 100 % of control; under setting [3], 110 % of control; under setting [1], 107 % of control; under setting [2], 108 % of control.
`Nc1nc2n[nH]nc2c(=O)[nH]1`: the T/C is 93 % of control (dose: 25.0 mg/kg/injection, schedule: Q01DX009 (ip), vehicle: suspension in saline) and 98 % of control (dose: 50.0 mg/kg/injection, schedule: Q01DX009 (ip), vehicle: suspension in saline).
In the case of `OCC1OC(n2cnc3cc(Cl)c(Cl)cc32)C(O)C1O` (stereo not drawn), the T/C is 96 % of control under setting [7]; 94 % of control under setting [8]; 110 % of control under setting [9]; 110 % of control under setting [10]; 100 % of control under setting [11]; 90 % of control under setting [12].
`COc1cc(OC)c(OC)cc1/C=C\c1ccnc2ccccc12`: the T/C is, setting by setting: under setting [2], 113 % of control; under setting [13], 105 % of control; under setting [4], 100 % of control; under setting [5], 107 % of control.
For the molecule `C/C=C(\C)c1cc(=O)c2c(C)cc3c(c2o1)C(=O)c1c(O)c(C2CC(C)(N(C)C)C(O)C(C)O2)cc(C2CC(N(C)C)C(O)C(C)O2)c1C3=O` (stereo not drawn), the T/C was 103 % of control (dose: 31.25 micrograms/kg/injection, schedule: Q01DX009 (ip), vehicle: saline); 106 % of control (dose: 62.5 micrograms/kg/injection, schedule: Q01DX009 (ip), vehicle: saline); 112 % of control (dose: 125.0 micrograms/kg/injection, schedule: Q01DX009 (ip), vehicle: saline); 86 % of control (dose: 250.0 micrograms/kg/injection, schedule: Q01DX009 (ip), vehicle: saline).
On to `Cc1ccc(S(=O)(=O)NC(=O)C2C(=O)CC3(CCCCC3)CC2=O)cc1`, for which the T/C was 105 % of control under setting [13] and 101 % of control under setting [4].
On to `O=C1OC(c2ccc(O)cc2)(c2ccc(Oc3ccccc3)cc2)c2ccccc21` (stereo not drawn), for which the T/C was 105 % of control under setting [11]; 112 % of control under setting [12]; 99 % of control (dose: 400.0 mg/kg/injection, schedule: Q01DX009 (ip), vehicle: saline with Tween-80).
For the molecule `Nc1ccn(C2OC(CO)C(O)C2O)c(=O)n1` (stereo not drawn), the T/C is, setting by setting: (dose: 6.25 mg/kg/injection, schedule: Q01DX009 (ip), vehicle: saline) 98 % of control; (dose: 30.0 mg/kg/injection, schedule: Q01DX006 (ip), vehicle: saline) 281 % of control; (dose: 60.0 mg/kg/injection, schedule: Q01DX009 (ip), vehicle: saline) 234 % of control; (dose: 980.0 mg/kg/injection, schedule: Q04DX003 (ip), vehicle: saline) 121 % of control; (dose: 2000.0 mg/kg/injection, schedule: Q04DX003 (ip), vehicle: saline) 93 % of control.
With `O=C(CN1CC1)NCCCCCCCCNC(=O)CN1CC1`, the T/C is, setting by setting: (dose: 3.13 mg/kg/injection, schedule: Q01DX009 (ip), vehicle: Klucel (hydroxypropylcellulose) (HPC)) 115 % of control; under setting [3], 112 % of control; under setting [1], 119 % of control.
Regarding `CN(C)c1nc(N(C)C)nc(N(C)C)n1`, the T/C under setting [10] is 99 % of control; the T/C (dose: 59.0 mg/kg/injection, schedule: Q04DX003 (ip), vehicle: saline) is 102 % of control; the T/C (dose: 88.0 mg/kg/injection, schedule: Q04DX003 (ip), vehicle: saline) was 97 % of control; the T/C under setting [11] is 154 % of control; the T/C (dose: 133.0 mg/kg/injection, schedule: Q04DX003 (ip), vehicle: Klucel (hydroxypropylcellulose) (HPC)) was 90 % of control; the T/C (dose: 133.0 mg/kg/injection, schedule: Q04DX003 (ip), vehicle: saline) was 101 % of control and 109 % of control. Moreover, the T/C by setting is: under setting [12], 92 % of control; (dose: 200.0 mg/kg/injection, schedule: Q04DX003 (ip), vehicle: Klucel (hydroxypropylcellulose) (HPC)) 114 % of control; (dose: 200.0 mg/kg/injection, schedule: Q04DX003 (ip), vehicle: saline) 96 % of control and 105 % of control; (dose: 300.0 mg/kg/injection, schedule: Q04DX003 (ip), vehicle: saline) 95 % of control and 105 % of control; (dose: 450.0 mg/kg/injection, schedule: Q04DX003 (ip), vehicle: saline) 104 % of control; (dose: 675.0 mg/kg/injection, schedule: Q04DX003 (ip), vehicle: saline) 105 % of control.
Turning to `CCC1(O)CC2CN(CCc3c([nH]c4ccccc34)C(C(=O)OC)(c3cc4c(cc3OC)N(C)C3C(O)(C(=O)NCCSSCCNC(=O)C5(O)C(O)C6(CC)C=CCN7CCC8(c9cc(C%10(C(=O)OC)CC%11CN(CCc%12c%10[nH]c%10ccccc%12%10)CC(O)(CC)C%11)c(OC)cc9N(C)C58)C76)C(O)C5(CC)C=CCN6CCC43C65)C2)C1` (stereo not drawn), the T/C runs as follows: (dose: 0.39 mg/kg/injection, schedule: Q01DX009 (ip), vehicle: saline) 93 % of control; (dose: 0.65 mg/kg/injection, schedule: Q01DX009 (ip), vehicle: saline) 93 % of control.
For `Cc1ccc2c(c1)N=C(Nc1ccccc1)N=S2(C)=O` (stereo not drawn), the T/C is, setting by setting: under setting [7], 102 % of control; under setting [8], 102 % of control; under setting [9], 111 % of control; under setting [10], 112 % of control; under setting [11], 115 % of control; under setting [12], 116 % of control.
